Tested on: MV-4-11 cells
Assay: Gene expression microarray analysis (Affymetrix PrimeView) and GSEA
Type: cell-based, human
Set-up: RFU PODN (11730768_x_at) / Fold change /veh PODN (11730768_x_at) / RFU LINC00158 (11744669_a_at) / Fold change /veh LINC00158 (11744669_a_at) / RFU DUSP10 (11751237_a_at) / Fold change /veh DUSP10 (11751237_a_at) / RFU ID3 (11757404_x_at) / Fold change /veh ID3 (11757404_x_at) / RFU PLEKHG5 (11737974_s_at) / Fold change /veh PLEKHG5 (11737974_s_at) / RFU LRRC4B (11730491_at) / Fold change /veh LRRC4B (11730491_at) / RFU GIMAP4 (11747438_a_at) / Fold change /veh GIMAP4 (11747438_a_at) / RFU KRT8 (11758183_x_at) / Fold change /veh KRT8 (11758183_x_at) / RFU CNN1 (11734310_a_at) / Fold change /veh CNN1 (11734310_a_at) / RFU VPS37D (11726825_at) / Fold change /veh VPS37D (11726825_at) / RFU C10orf10 (11716522_x_at) / Fold change /veh C10orf10 (11716522_x_at) / RFU KIR2DL2 /// KIR2DL4 /// KIR2DL5A /// KIR2DL5B /// KIR2DS1 /// KIR2DS2 /// KIR2DS3 /// KIR2DS4 /// KIR3DL3 /// KIR3DL3 /// KIR3DS1 (11738374_at) / Fold change /veh KIR2DL2 /// KIR2DL4 /// KIR2DL5A /// KIR2DL5B /// KIR2DS1 /// KIR2DS2 /// KIR2DS3 /// KIR2DS4 /// KIR3DL3 /// KIR3DL3 /// KIR3DS1 (11738374_at) / RFU C1QL1 (11718748_at) / Fold change /veh C1QL1 (11718748_at) / RFU TMPRSS4 (11747572_a_at) / Fold change /veh TMPRSS4 (11747572_a_at) / RFU HAMP (11756126_x_at) / Fold change /veh HAMP (11756126_x_at) / RFU RNFT2 (11725882_a_at) / Fold change /veh RNFT2 (11725882_a_at) / RFU NR4A2 (11747474_a_at) / Fold change /veh NR4A2 (11747474_a_at) / RFU ABCC12 (11746883_a_at) / Fold change /veh ABCC12 (11746883_a_at) / RFU TMEM136 (11760407_x_at) / Fold change /veh TMEM136 (11760407_x_at) / RFU CLDN22 /// WWC2 (11732394_at) / Fold change /veh CLDN22 /// WWC2 (11732394_at) / RFU HLA-DPB1 (11760878_x_at) / Fold change /veh HLA-DPB1 (11760878_x_at) / RFU SPINT1 (11716480_a_at) / Fold change /veh SPINT1 (11716480_a_at) / RFU GAP43 (11754022_s_at) / Fold change /veh GAP43 (11754022_s_at) / RFU A4GNT (11735810_at) / Fold change /veh A4GNT (11735810_at) / RFU PRB3 (11715151_x_at) / Fold change /veh PRB3 (11715151_x_at) / RFU TUBB4B (11761932_at) / Fold change /veh TUBB4B (11761932_at) / RFU CAPN14 (11732068_a_at) / Fold change /veh CAPN14 (11732068_a_at) / RFU TMCC2 (11721928_a_at) / Fold change /veh TMCC2 (11721928_a_at) / RFU IRGQ (11745062_a_at) / Fold change /veh IRGQ (11745062_a_at) / RFU FAM174B (11720279_a_at) / Fold change /veh FAM174B (11720279_a_at) / RFU TMPRSS4 (11748680_a_at) / Fold change /veh TMPRSS4 (11748680_a_at) / RFU FAM212B (11763350_a_at) / Fold change /veh FAM212B (11763350_a_at) / RFU PLEKHG5 (11743358_a_at) / Fold change /veh PLEKHG5 (11743358_a_at) / RFU ZSCAN30 (11745921_a_at) / Fold change /veh ZSCAN30 (11745921_a_at) / RFU CMKLR1 (11741424_a_at) / Fold change /veh CMKLR1 (11741424_a_at) / RFU LOC101060620 /// MAPK8IP1 (11723275_at) / Fold change /veh LOC101060620 /// MAPK8IP1 (11723275_at) / RFU SPTSSB (11747773_x_at) / Fold change /veh SPTSSB (11747773_x_at) / RFU PRSS12 (11739890_at) / Fold change /veh PRSS12 (11739890_at) / RFU BIN1 (11741810_x_at) / Fold change /veh BIN1 (11741810_x_at) / RFU WNT11 (11732464_a_at) / Fold change /veh WNT11 (11732464_a_at) / RFU C10orf10 (11716521_a_at) / Fold change /veh C10orf10 (11716521_a_at) / RFU C5orf56 (11738089_at) / Fold change /veh C5orf56 (11738089_at) / RFU CYB561 (11721691_x_at) / Fold change /veh CYB561 (11721691_x_at) / RFU ANKRD19P (11752326_a_at) / Fold change /veh ANKRD19P (11752326_a_at) / RFU OR2T12 /// OR2T33 /// OR2T8 (11738714_s_at) / Fold change /veh OR2T12 /// OR2T33 /// OR2T8 (11738714_s_at) / RFU VCAN (11748164_a_at) / Fold change /veh VCAN (11748164_a_at) / RFU JSRP1 (11732532_at) / Fold change /veh JSRP1 (11732532_at) / RFU KRTAP10-11 (11738290_x_at) / Fold change /veh KRTAP10-11 (11738290_x_at) / RFU MYO3A (11730013_a_at) / Fold change /veh MYO3A (11730013_a_at) / RFU EBF3 (11725865_a_at) / Fold change /veh EBF3 (11725865_a_at) / RFU CAMK2N1 (11719241_x_at) / Fold change /veh CAMK2N1 (11719241_x_at) / RFU C5orf56 (11738088_a_at) / Fold change /veh C5orf56 (11738088_a_at) / RFU OLFML3 (11715873_a_at) / Fold change /veh OLFML3 (11715873_a_at) / RFU LOC100653217 /// NTM (11731650_a_at) / Fold change /veh LOC100653217 /// NTM (11731650_a_at) / RFU MAPK11 (11762145_a_at) / Fold change /veh MAPK11 (11762145_a_at) / RFU FIZ1 (11724087_x_at) / Fold change /veh FIZ1 (11724087_x_at) / RFU OASL (11726364_x_at) / Fold change /veh OASL (11726364_x_at) / RFU SOX15 (11748057_x_at) / Fold change /veh SOX15 (11748057_x_at) / RFU CD79A (11719716_a_at) / Fold change /veh CD79A (11719716_a_at) / RFU HIST1H1D (11736915_at) / Fold change /veh HIST1H1D (11736915_at) / RFU CASKIN2 (11723855_a_at) / Fold change /veh CASKIN2 (11723855_a_at) / RFU LOC730098 (11760151_x_at) / Fold change /veh LOC730098 (11760151_x_at) / RFU OR4N2 (11742367_at) / Fold change /veh OR4N2 (11742367_at) / RFU PRRT2 (11749266_a_at) / Fold change /veh PRRT2 (11749266_a_at) / RFU SNX32 (11753110_a_at) / Fold change /veh SNX32 (11753110_a_at) / RFU CDHR5 (11726645_a_at) / Fold change /veh CDHR5 (11726645_a_at) / RFU RCAN1 (11760418_a_at) / Fold change /veh RCAN1 (11760418_a_at) / RFU FAM167A (11723789_a_at) / Fold change /veh FAM167A (11723789_a_at) / RFU FAM26E (11764081_at) / Fold change /veh FAM26E (11764081_at) / RFU ISYNA1 (11749810_s_at) / Fold change /veh ISYNA1 (11749810_s_at) / RFU ACY1 (11761880_at) / Fold change /veh ACY1 (11761880_at) / RFU 11764098_at / Fold change /veh 11764098_at / RFU SAMD14 (11745864_x_at) / Fold change /veh SAMD14 (11745864_x_at) / RFU NPB (11741838_a_at) / Fold change /veh NPB (11741838_a_at) / RFU TMPRSS6 (11731388_a_at) / Fold change /veh TMPRSS6 (11731388_a_at) / RFU KRTAP10-2 (11738614_at) / Fold change /veh KRTAP10-2 (11738614_at) / RFU ARHGAP8 /// PRR5-ARHGAP8 (11727945_x_at) / Fold change /veh ARHGAP8 /// PRR5-ARHGAP8 (11727945_x_at) / RFU KRTAP5-7 /// NADSYN1 (11734609_at) / Fold change /veh KRTAP5-7 /// NADSYN1 (11734609_at) / RFU RASL12 (11751679_a_at) / Fold change /veh RASL12 (11751679_a_at) / RFU CDKN2B (11736163_a_at) / Fold change /veh CDKN2B (11736163_a_at) / RFU PRF1 (11729649_at) / Fold change /veh PRF1 (11729649_at) / RFU, ZNF638 /// ZNF638-IT1 / Fold change vs veh, ZNF638 /// ZNF638-IT1 / RFU, PANK3 / Fold change vs veh, PANK3 / RFU, SH3YL1 / Fold change vs veh, SH3YL1 / RFU, ZEB2 / Fold change vs veh, ZEB2 / RFU, NRIP1 / Fold change vs veh, NRIP1 / RFU, PTTG1IP / Fold change vs veh, PTTG1IP / RFU, CAPN2 / Fold change vs veh, CAPN2 / RFU, MED14 / Fold change vs veh, MED14 / RFU, SNORA58 / Fold change vs veh, SNORA58 / RFU, C1orf63 / Fold change vs veh, C1orf63 / RFU, LRRFIP1 / Fold change vs veh, LRRFIP1 / RFU, NDUFAF7 / Fold change vs veh, NDUFAF7 / RFU, SLC12A2 / Fold change vs veh, SLC12A2 / RFU, IBTK / Fold change vs veh, IBTK / RFU, ESF1 / Fold change vs veh, ESF1 / Fold change vs veh, TMEM50B / RFU, TAOK1 / Fold change vs veh, TAOK1 / RFU, ACBD3 / Fold change vs veh, ACBD3 / RFU, TMA16 / Fold change vs veh, TMA16 / RFU, RWDD3 / Fold change vs veh, RWDD3 / RFU, BCAT1 / Fold change vs veh, BCAT1 / RFU, EDEM3 / Fold change vs veh, EDEM3 / RFU, TMEM33 / Fold change vs veh, TMEM33 / RFU, WDR75 / Fold change vs veh, WDR75 / RFU, AHCTF1 / Fold change vs veh, AHCTF1 / RFU, TFRC / Fold change vs veh, TFRC / RFU, ZDHHC17 / Fold change vs veh, ZDHHC17 / RFU, NOM1 / Fold change vs veh, NOM1 / RFU, ARL8B / Fold change vs veh, ARL8B / RFU, ZBTB11 / Fold change vs veh, ZBTB11 / RFU, TAMM41 / Fold change vs veh, TAMM41 / RFU, KIAA1704 /// LOC100996395 / Fold change vs veh, KIAA1704 /// LOC100996395 / RFU, ING1 / Fold change vs veh, ING1 / RFU, TRMT61B / Fold change vs veh, TRMT61B / RFU, FUBP3 / Fold change vs veh, FUBP3 / RFU, TP53 / Fold change vs veh, TP53 / RFU, TNKS2 / Fold change vs veh, TNKS2 / RFU, ZFP14 / Fold change vs veh, ZFP14 / RFU, ACTR2 / Fold change vs veh, ACTR2 / RFU, PPP3R1 / Fold change vs veh, PPP3R1 / RFU, PIK3R1 / Fold change vs veh, PIK3R1 / RFU, HNRNPA1 / Fold change vs veh, HNRNPA1 / RFU, RNF170 / Fold change vs veh, RNF170 / RFU, ZNF28 / Fold change vs veh, ZNF28 / RFU, RNGTT / Fold change vs veh, RNGTT / RFU, OGT / Fold change vs veh, OGT / RFU, BRD1 / Fold change vs veh, BRD1 / RFU, MARS / Fold change vs veh, MARS / RFU, ZNF655 / Fold change vs veh, ZNF655 / RFU, FAHD1 / Fold change vs veh, FAHD1 / RFU, BDP1 / Fold change vs veh, BDP1 / RFU, LRRCC1 / Fold change vs veh, LRRCC1 / RFU, ARID1A / Fold change vs veh, ARID1A / RFU, ZNF146 / Fold change vs veh, ZNF146 / RFU, ZNF330 / Fold change vs veh, ZNF330 / RFU, GPN3 / Fold change vs veh, GPN3 / RFU, C9orf123 / Fold change vs veh, C9orf123 / RFU, N4BP2L2 / Fold change vs veh, N4BP2L2 / RFU, ARFIP1 / Fold change vs veh, ARFIP1 / RFU, FAM179B / Fold change vs veh, FAM179B / RFU, BCL10 / Fold change vs veh, BCL10 / RFU, UHRF1BP1L / Fold change vs veh, UHRF1BP1L / RFU, BET1 / Fold change vs veh, BET1 / RFU, CNOT2 / Fold change vs veh, CNOT2 / RFU, ZNF268 / Fold change vs veh, ZNF268 / Fold change vs veh, ZNF507 / RFU, DGCR2 / Fold change vs veh, DGCR2 / RFU, WDSUB1 / Fold change vs veh, WDSUB1 / Fold change vs veh, HSP90B1 /// MIR3652 / RFU, ADSS / Fold change vs veh, ADSS / RFU, GK / Fold change vs veh, GK / RFU, ZNF148 / Fold change vs veh, ZNF148 / RFU, TAF9 / Fold change vs veh, TAF9 / RFU, SLC1A5 / Fold change vs veh, SLC1A5 / RFU, SLMO2 / Fold change vs veh, SLMO2 / RFU, ABCC4 / Fold change vs veh, ABCC4 / RFU, LOC101060439 /// RAP1B / Fold change vs veh, LOC101060439 /// RAP1B / RFU, RFX7 / Fold change vs veh, RFX7 / RFU, GTPBP10 / Fold change vs veh, GTPBP10 / RFU, CNEP1R1 / Fold change vs veh, CNEP1R1 / RFU, BIVM-ERCC5 /// ERCC5 / Fold change vs veh, BIVM-ERCC5 /// ERCC5 / RFU, ILF3 / Fold change vs veh, ILF3 / RFU 11762660_at / Fold change /veh 11762660_at / RFU VCAN (11757783_s_at) / Fold change /veh VCAN (11757783_s_at) / RFU DDX43 (11728927_at) / Fold change /veh DDX43 (11728927_at) / RFU KRT8 (11758188_x_at) / Fold change /veh KRT8 (11758188_x_at) / RFU NKD1 (11759106_at) / Fold change /veh NKD1 (11759106_at) / RFU SRD5A1 (11742802_a_at) / Fold change /veh SRD5A1 (11742802_a_at) / RFU TPSAB1 /// TPSB2 (11721975_s_at) / Fold change /veh TPSAB1 /// TPSB2 (11721975_s_at) / RFU GSTM3 (11746129_a_at) / Fold change /veh GSTM3 (11746129_a_at) / RFU IL23R (11737362_x_at) / Fold change /veh IL23R (11737362_x_at) / RFU TMEM51 (11727254_a_at) / Fold change /veh TMEM51 (11727254_a_at) / RFU PIWIL2 (11732686_x_at) / Fold change /veh PIWIL2 (11732686_x_at) / RFU ORM1 (11744905_x_at) / Fold change /veh ORM1 (11744905_x_at) / RFU CCDC152 (11743942_at) / Fold change /veh CCDC152 (11743942_at) / RFU ECM1 (11717891_a_at) / Fold change /veh ECM1 (11717891_a_at) / RFU IL23R (11748794_a_at) / Fold change /veh IL23R (11748794_a_at) / RFU TNFAIP8L3 (11732012_x_at) / Fold change /veh TNFAIP8L3 (11732012_x_at) / RFU MBOAT4 (11741988_at) / Fold change /veh MBOAT4 (11741988_at) / RFU 11764193_at / Fold change /veh 11764193_at / RFU TMEM53 (11763286_at) / Fold change /veh TMEM53 (11763286_at) / RFU MAGEB2 (11727129_at) / Fold change /veh MAGEB2 (11727129_at) / RFU TMEM200A (11744735_a_at) / Fold change /veh TMEM200A (11744735_a_at) / RFU CCDC152 (11751479_a_at) / Fold change /veh CCDC152 (11751479_a_at) / RFU FAM211A (11726209_a_at) / Fold change /veh FAM211A (11726209_a_at) / RFU RGS16 (11746705_a_at) / Fold change /veh RGS16 (11746705_a_at) / RFU VCAN (11755009_s_at) / Fold change /veh VCAN (11755009_s_at) / RFU RHOB (11743442_s_at) / Fold change /veh RHOB (11743442_s_at) / RFU RGS16 (11720943_a_at) / Fold change /veh RGS16 (11720943_a_at) / RFU RGS16 (11720944_at) / Fold change /veh RGS16 (11720944_at) / RFU, VPS4B / Fold change vs veh, VPS4B / RFU, CREB1 / Fold change vs veh, CREB1 / RFU, DNAJC13 / Fold change vs veh, DNAJC13 / RFU, GNAQ / Fold change vs veh, GNAQ / RFU, CDK5R1 / Fold change vs veh, CDK5R1 / RFU, ZRANB3 / Fold change vs veh, ZRANB3 / RFU, CUL4A / Fold change vs veh, CUL4A / RFU, CCNY / Fold change vs veh, CCNY / RFU, UFL1 / Fold change vs veh, UFL1 / RFU, COG3 / Fold change vs veh, COG3 / RFU, DIAPH2 / Fold change vs veh, DIAPH2 / RFU, SKA2 / Fold change vs veh, SKA2 / RFU, AFF3 / Fold change vs veh, AFF3 / RFU, LMF1 / Fold change vs veh, LMF1 / RFU, IPO11 / Fold change vs veh, IPO11 / RFU, DFFB / Fold change vs veh, DFFB / RFU, FOXP1 / Fold change vs veh, FOXP1 / RFU, CARD8 / Fold change vs veh, CARD8 / RFU, STRN3 / Fold change vs veh, STRN3 / RFU, ADK / Fold change vs veh, ADK / RFU, RASSF2 / Fold change vs veh, RASSF2 / RFU, WIPF1 / Fold change vs veh, WIPF1 / RFU, LARP1B / Fold change vs veh, LARP1B / RFU, RASA1 / Fold change vs veh, RASA1 / RFU, RB1 / Fold change vs veh, RB1 / RFU, PPFIA1 / Fold change vs veh, PPFIA1 / RFU, MAT2A / Fold change vs veh, MAT2A / RFU, CCT5 / Fold change vs veh, CCT5 / RFU, WDR92 / Fold change vs veh, WDR92 / RFU, CUX1 / Fold change vs veh, CUX1 / RFU, TTC7A / Fold change vs veh, TTC7A / RFU, TMEM135 / Fold change vs veh, TMEM135 / RFU, DEPTOR / Fold change vs veh, DEPTOR / RFU, CPM / Fold change vs veh, CPM / RFU, DNAJB6 / Fold change vs veh, DNAJB6 / RFU, CACNA2D3 / Fold change vs veh, CACNA2D3 / RFU, DTX4 / Fold change vs veh, DTX4 / RFU, TFCP2 / Fold change vs veh, TFCP2 / RFU, GMCL1 /// GMCL1P1 / Fold change vs veh, GMCL1 /// GMCL1P1 / RFU, AEBP2 / Fold change vs veh, AEBP2 / RFU, SNHG1 /// SNORD22 /// SNORD25 /// SNORD26 /// SNORD27 /// SNORD28 /// SNORD29 /// SNORD31 / Fold change vs veh, SNHG1 /// SNORD22 /// SNORD25 /// SNORD26 /// SNORD27 /// SNORD28 /// SNORD29 /// SNORD31 / Fold change (Aza/veh), C12orf56 (ProbeSet 11735607_a_at) / Fold change (ACY-1035/veh), C12orf56 (ProbeSet 11735607_a_at) / Fold change (Aza/veh), FGFR1OP (ProbeSet 11751329_s_at) / Fold change (ACY-1035/veh), FGFR1OP (ProbeSet 11751329_s_at) / Fold change (Aza/veh), VPS36 (ProbeSet 11739960_a_at) / Fold change (ACY-1035/veh), VPS36 (ProbeSet 11739960_a_at) / RFU SYPL1 (11715823_x_at) / Fold change /veh SYPL1 (11715823_x_at) / RFU IGFBP7 (11715501_s_at) / Fold change /veh IGFBP7 (11715501_s_at) / RFU REEP3 (11722064_at) / Fold change /veh REEP3 (11722064_at) / RFU IGLL1 (11728026_x_at) / Fold change /veh IGLL1 (11728026_x_at): dose or concentration left out as unconfirmed
Settings: MV-4-11 cells, 48 hours

With `Nc1ncn([C@@H]2O[C@H](CO)[C@@H](O)[C@H]2O)c(=O)n1` [azacitidine] the “Fold change /veh KRTAP10-11 (11738290_x_at)” value was 1.14.
